Key:
serum glucose = assay: Effective clinical dose of delivery agent in humans (delivery efficiency); format: in vivo, human
Method: Next, delivery agents 1-3 were compared for the ability to efficiently transport an active agent across the GI mucosa in a biologically active form by determining the relationship between delivery agent dose, dose of active agent and the glucose response. The effective dose of delivery agent necessary to deliver a therapeutic dose of active agent and produce a therapeutic effect was measured. For delivery agent 3, the active agent was insulin, and the therapeutic effect was determined by the ability of the delivery agent/insulin combination to lower serum glucose by at least 10% within one hour post administration. For delivery agents 1 and 2, the active agent was heparin, and the therapeutic effect was determined by […]

[1] = Nonclinical pharmacokinetic studies of 4-CNAB; format: in vivo; conditions: mice, rats and monkeys
Method: The present invention comprising compositions of insulin and the delivery agent 4-CNAB was evaluated for safety and toxicity in a nonclinical program that included pharmacological screening, pharmacokinetic profiling, and toxicity assessments in rats and monkeys.

[2] = Example 5: safety and tolerability; conditions: 4-CNAB alone, oral 400-2000 mg
Text: Safety assessments included physical examinations, medical history, vital signs, 12-lead electrocardiogram (ECG) monitoring, laboratory evaluations and checking for adverse events. Activity parameters included blood glucose, insulin, C-peptide, and 4-CNAB plasma concentration measurements.

blood glucose = test system: blood glucose; set-up: species or system Sprague-Dawley rats; conditions: rat, in vivo, 0.05 mg/kg
Method: An aqueous insulin stock solution was prepared (at pH 7.5) with a final insulin concentration of approximately 15 mg/mL. Delivery agents were dissolved in water with subsequent additions of sodium hydroxide or hydrochloric acid to both dissolve the delivery agent and to titrate the dosing solution to pH 7.5-8.5. The required amount of insulin was added to the delivery agent solution before dosing.
Insulin levels in the rats were assayed using the Insulin ELISA Test Kit [DSL, Webster, Tex. Cat. #DSL-10-1600]. The assay covered the range 3.125 to 250 mU/mL. Blood glucose levels in the rats were measured using a glucometer, One-Touch Basic Blood Glucose Monitoring System, manufactured by Lifescan Inc. (Milpitas, Calif.).
A total of 60 male Sprague-Dawley rats were fasted for 24 hours and then anesthetized with Thorazine (1.5 mg/kg, im) and Ketamine (44 mg/kg, im). They were then divided into the following 5 treatment groups: • 1. H2O (p.o. 1 mL/kg) • 2. Carrier (p.o., 1 mL/kg; 200 mg/kg) • 3. Insulin (p.o., 1 ml/kg; 0.5 mg/kg) • 4. Insulin and Carrier (p.o., 1 ml/kg; 0.5 mg/kg Insulin and 200 mg/kg 1182) • 5. Insulin (s.c., 0.05 mg/kg) • There were twelve animals per group, with three being sacrificed at 30, 60, 120 and 180 minutes. For serum insulin and blood glucose monitoring, 0.4 mL of blood was drawn from the tail artery. […]

[3] = set-up: species or system rats; conditions: rat, in vivo, po
Method: Similarly, for a fixed oral dose of 4-CNAB, insulin absorption increases with increasing doses of insulin. Oral insulin absorption was evaluated in rats at varying doses of both insulin and 4-CNAB. […] The mean peak serum insulin levels were 31, 44, 85, and 132 μU/mL respectively. Insulin absorption was dose dependent and increased as the dose of insulin increased. […] The mean peak serum insulin levels were 9, 39, 103, and 157 μU/mL, respectively. Insulin absorption was dose dependent and increased as the dose of 4-CNAB increased.

Compound: O=C(O)CCCNC(=O)c1ccc(Cl)cc1O [4-CNAB, 4-[(4-chloro, 2-hydroxybenzoyl)amino]butanoic acid]
- Effective clinical dose of delivery agent (serum glucose; active agent insulin, lowers serum glucose by at least 10% within one hour): 200 Mg
- Fold more efficient in facilitating transit across the GI mucosa vs delivery agent 1 (serum glucose; effective dose ratio): approximately 12 fold
- Fold more efficient in facilitating transport across the GI mucosa vs delivery agent 2 (serum glucose; effective dose ratio): 7.5 fold
- Absorption after oral administration [1]: absorbed rapidly following oral administration, and subsequently cleared from the body
- Tolerability [2]: well tolerated

Compound: SC insulin: human regular insulin injected subcutaneously (Humulin R or equivalent; Calbiochem insulin in the rat studies)
- Delay of tmax vs oral (blood glucose): about 15 minutes

Compound: oral insulin alone: recombinant human zinc insulin given orally without delivery agent
- Change in serum insulin levels [3]: did not result in any significant increases in serum insulin levels
